We go through 16 molecules from patent US9814696B2, “Use of coumarin derivatives for the preparation of drugs for treating skin diseases” (UNIVERSITE PIERRE ET MARIE CURIE (PARIS 6), priority 2011, dated 2017).

Series [1] has as its system normal human keratinocytes. Briefly: Neutral red uptake (NRU) cytotoxicity test / cell viability. Further details: cytotoxicity, neutral red uptake test (FIG. 5): dose or concentration left out as unconfirmed. In kind it is cell-based. The conditions noted are these: 48 h; for Toxicity, neutral red uptake test: normal human keratinocytes; for cytotoxicity, neutral red uptake test: 1 and 10 μM; for cytotoxicity, neutral red uptake test / cytotoxicity, neutral red uptake test (FIG. 5): human normal keratinocytes. The source says:
The NRU cytotoxicity assay procedure is a cell survival/viability chemosensitivity assay based on the ability of viable cells to incorporate and bind neutral red (NR), a supravital dye. NR is a weak cationic dye that readily penetrates cell membranes by non-ionic diffusion and accumulates intracellularly in lysosomes. Alterations of the cell surface or the sensitive lysosomal membrane lead to lysosomal fragility and other changes that gradually become irreversible. Such changes caused by the action of xenobiotics result in a decreased uptake and binding of NR. It is thus possible to distinguish between viable, damaged, or dead cells, which is the basis of this assay. After treatment with the small-molecules inhibitors, NR uptake in cells will be measured by spectrophotometry at 540±10 nm.
Keratinocytes from healthy persons or patients with Netherton syndrome are seeded at the density of 4000 cells in 125 μL of medium per well in 96-well plates.
After seeding, cells are incubated for 48 hours in the following experimental conditions: 37° C.±1° C., 90%±5.0% humidity, and 5%±1% CO2/air. This incubation period allows for cell recovery and adherence and progression to exponential growth phase.
Prepare inhibitors solutions 2-fold more concentrated than desired. Add 125 μL of these solutions to the wells without changing or removing the medium (125 μL).
48 h hours after the beginning of the treatment, carefully remove the medium (containing the tested inhibitor) and rinse the cells very carefully with 250 μL pre-warmed PBS.
Add 250 μL NR medium and incubate (37° C.±1° C., 90%±5% humidity, and 5.0%±1% CO2/air) for 3±0.1 h. NR medium is the culture medium containing 33 μg/mL of NR. After incubation, remove the NR medium, and carefully rinse cells with 250 μL pre-warmed PBS.
Measure the absorption (within 60 minutes after adding NR Desorb solution) of the resulting colored solution at 540 nm±10 nm in a microtiter plate reader (spectrophotometer), using the blank as a reference.
A calculation of cell viability expressed as NRU is made for each concentration of the tested inhibitor by using the mean NRU of the three replicate values per each concentration. This value is compared with the mean NRU of all vehicle values. Relative cell viability is then expressed as percent of untreated vehicle control (DMSO).
Normal human keratinocytes were seeded in a 96-well tissue culture plate. At 20% of confluence, molecules were added in the culture medium and incubated for 48 h. Neutral red medium was added to every well for an incubation period of 3 h, then the dye was extracted with acidified ethanol solution. Data (FIGS. 2 and 3) represent the mean cell viability after treatment +/−SD compared to mean viability of cells treated with the vehicle only (DMSO). Data represent the mean of 5 individual experiments.

The next series addresses T1, KLK14 (Homo sapiens, UniProt Q9P0G3).
T1 sequence (Q9P0G3 25-251): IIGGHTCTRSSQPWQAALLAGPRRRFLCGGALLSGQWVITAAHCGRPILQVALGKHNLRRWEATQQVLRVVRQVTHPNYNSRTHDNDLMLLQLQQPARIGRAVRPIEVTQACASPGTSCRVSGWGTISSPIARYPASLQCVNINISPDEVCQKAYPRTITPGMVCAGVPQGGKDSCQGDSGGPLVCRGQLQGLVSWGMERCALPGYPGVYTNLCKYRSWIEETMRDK
Nature of the series: KLK14 enzyme inhibition assay, fluorogenic substrate Boc-Val-Pro-Arg-AMC. In kind it is biochemical. The conditions noted are these: for inhibition at 100 µM / IC50 / inhibition at 50 µM: 37° C., 15 min of incubation, pH 8. Here is the method: (§1) Kallikreins KLK5, KLK7 and KLK14 activities were determined by monitoring the hydrolysis of the appropriate fluorogenic substrate (λexc=355, λem=460 nm) for 15 min at 37° C. in the presence of the untreated kallikrein (control) or kallikrein that had been incubated with a test compound. Substrate and compounds were previously dissolved in DMSO, with the final solvent concentration kept constant at 2% (v/v) (KLK 5 and 14), and 4% (v/v) (KLK7). The composition of the activity buffers (pH 8.0) was 100 mM Tris-HCl, 150 mM NaCl, 0.01% (v/v) Tween 20 for the KLK5 assay, and 100 mM Tris-HCl, 1M NaCl, 0.01% (v/v) Tween 20 in the KLK 7 and 14 assays. The final concentrations were 0.6 nM (KLK5) and 100 μM (Boc-Val-Pro-Arg-AMC) (KLK5 assay), 8 nM (KLK7) and 40 μM (Suc-Leu-Leu-Val-Tyr-AMC, AMC: 7-amino-4-methyl-coumarin) (KLK7 assay), and 0.17 nM (KLK14) and 10 μM (Boc-Val-Pro-Arg-AMC) (KLK14 assay). Using the appropriate substrate, the coumarinic compounds (0.01-100 μM) were tested in duplicate for each inhibitor concentration to detect their inhibitory potential. The enzyme and the inhibitors were incubated for 15 min before the determination of the enzyme activity. Initial rates determined in control experiments (V0) were considered to be 100% of the peptidase activity; initial rates below 100% were considered to be inhibitions. The inhibitory activity of compounds was expressed as IC50 (inhibitor concentrations giving 50% inhibition). The values of IC50 were calculated by fitting the experimental data to the equation: % Inhibition=100×(1−Vi/V0)=100[I]0/(IC50+[I]0), or equation: % Inhibition=100[I]0^nH/(IC50^nH+[I]0^nH),nH is the Hill number.
(§2) The tests were realized at 37° C. after 15 min of incubation at pH 8.

For another series, the target named is KLK7 (Homo sapiens, UniProt P49862). Nature of the series: KLK7 enzyme inhibition assay, fluorogenic substrate Suc-Leu-Leu-Val-Tyr-AMC. In kind it is biochemical. The following applies: for selective activity against enzyme: KLK7: Table B, among KLK5, KLK7 and KLK14. Here is the method:
as §1, §2

Another series concerns the target T2, KLK5 (Homo sapiens, UniProt Q9Y337).
T2 sequence (Q9Y337 23-293): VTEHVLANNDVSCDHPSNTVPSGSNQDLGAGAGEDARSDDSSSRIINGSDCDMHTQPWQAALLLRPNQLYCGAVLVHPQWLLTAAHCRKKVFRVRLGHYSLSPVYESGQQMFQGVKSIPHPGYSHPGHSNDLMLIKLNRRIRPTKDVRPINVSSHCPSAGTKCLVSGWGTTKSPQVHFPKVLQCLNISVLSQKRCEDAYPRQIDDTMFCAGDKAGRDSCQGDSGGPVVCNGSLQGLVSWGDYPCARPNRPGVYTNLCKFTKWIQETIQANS
Briefly: KLK5 enzyme inhibition assay, fluorogenic substrate Boc-Val-Pro-Arg-AMC. In kind it is biochemical. The conditions noted are these: 37° C., 15 min of incubation, pH 8. Here is the method: as §1, §2

The mark [2] stands for this setting: Table A, 37° C., 15 min of incubation, pH 8, read-out: IC50 (μM) KLK7.
Setting [3] is: Table A, read-out: IC50 (μM) KLK14.
[4] abbreviates: Table A2, 37° C., 15 min of incubation, pH 8, read-out: IC50 (nM) KLK7.
Where [5] appears, read: 37° C., 15 min of incubation, pH 8.

Like-named read-outs stand apart in the source and are kept apart here.

Chain of KLK7 (P49862 30-253): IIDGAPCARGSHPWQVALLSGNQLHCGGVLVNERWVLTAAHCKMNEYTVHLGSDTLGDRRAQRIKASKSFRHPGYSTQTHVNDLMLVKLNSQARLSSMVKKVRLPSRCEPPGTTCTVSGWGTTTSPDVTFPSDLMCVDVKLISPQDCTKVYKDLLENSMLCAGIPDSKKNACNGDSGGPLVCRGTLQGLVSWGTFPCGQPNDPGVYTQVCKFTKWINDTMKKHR

Usually inhibition stands for the share of the control response that was lost under treatment. For the molecule `NC(=O)c1ccccc1OC(=O)c1cc2cc(CCl)ccc2oc1=O` [IK3], the “Toxicity, neutral red uptake test” value in series [1] (1 μM) turned out to be 16.09±8.32%; in series [1] (10 μM), 47.1±4.43%. In addition, the inhibition at 100 µM on KLK14 worked out at 77%. Further, the “selective activity against enzyme: KLK14” value at KLK14 (Table B, among KLK5, KLK7 and KLK14) is “KLK14”.

Usually IC50 stands for the concentration that inhibits the measured activity by half. On to `COc1cc(Cl)cc(OC(=O)c2cc3cc(CCl)ccc3oc2=O)c1` [LP61], for which, on KLK7 (setting [2]), the IC50 was found to be 0.13 ± 0.005 µM. In series [1], the “cytotoxicity, neutral red uptake test” value is given as “No noticeable cytotoxicity”.

`NC(=O)c1cccc(OC(=O)c2cc3cc(CCl)ccc3oc2=O)c1` [IK4]: the IC50 on KLK5 (Table A, read-out: IC50 (μM) KLK5) was 21.6 ± 5 µM; on KLK7 (setting [2]), 7.8 ± 0.6 µM; on KLK14 (setting [3]), 30 ± 8 µM. Besides, the “cytotoxicity, neutral red uptake test” value in series [1] is given as “No noticeable cytotoxicity”.

In the case of `O=C(Oc1cccnc1)c1cc2cc(CCl)ccc2oc1=O` [MFS33], the values for the inhibition at 100 µM against KLK5 and on KLK14 were 62% and 60%, respectively. The IC50 on KLK7 (setting [4]) came to 0.0057 ± 0.0003 µM. The “cytotoxicity, neutral red uptake test” value in series [1] is listed as “No noticeable cytotoxicity”.

Consider `O=C(Oc1cccc(F)c1)c1cc2cc(CBr)ccc2oc1=O` [JFR11, 3-Fluorophenyl 6-bromomethyl-2-oxo-2H-1-benzopyran-3-carboxylate], for which the inhibition at 50 µM on KLK5 worked out at 42%; against KLK14, 48%. The IC50 at KLK7 (setting [4]) was 0.198 ± 0.008 µM. In addition, the “cytotoxicity, neutral red uptake test (FIG. 5)” value in series [1] is on record as “No noticeable cytotoxicity”.

In the case of `O=C(Oc1cccc(Br)c1)c1cc2cc(CBr)ccc2oc1=O` [JFR8, 3-Bromophenyl 6-bromomethyl-2-oxo-2H-1-benzopyran-3-carboxylate], the IC50 on KLK5 (Table A2, read-out: IC50 (nM) KLK5) turned out to be 1.47 ± 0.06 µM; at KLK7 (setting [4]), 0.057 ± 0.002 µM; at KLK14 (Table A2, read-out: IC50 (nM) KLK14) it was 3 ± 0.1 µM. Besides, the “selective activity against enzyme: KLK7” value at KLK7 is “KLK7”. Besides, the “cytotoxicity, neutral red uptake test (FIG. 5)” value in series [1] is on record as “No noticeable cytotoxicity”.

Take `O=C(Oc1ccc(Cl)cc1)c1cc2cc(CCl)ccc2oc1=O` [LP7]: the IC50 on KLK7 (setting [2]) was 0.463 ± 0.007 µM. Further, in series [1], the “cytotoxicity, neutral red uptake test” value is recorded as “No noticeable cytotoxicity”.

For `O=C(Oc1cccc(Cl)c1)c1cc2cc(CCl)ccc2oc1=O` [LP8], the inhibition at 100 µM was determined as 49% against KLK5 and 40% on KLK14. At KLK7 (setting [2]), the IC50 is 0.103 ± 0.005 µM. For the same molecule, the “selective activity against enzyme: KLK7” value at KLK7 is on record as “KLK7”.

For `CCOC(=O)c1cc2cc(C)ccc2oc1=O` [Compound D5], the inhibition at 100 µM on KLK5 is 90%; on KLK7 (setting [5]) it was 61%; against KLK14, 38%.

With `COC(=O)c1cccc(OC(=O)c2cc3cc(CCl)ccc3oc2=O)c1` [IK2], at KLK7 (setting [2]), the IC50 was found to be 0.68 ± 0.01 µM. For the same molecule, the “selective activity against enzyme: KLK7” value on KLK7 is “KLK7”. Moreover, the “cytotoxicity, neutral red uptake test” value in series [1] is “No noticeable cytotoxicity”. In addition, the inhibition at 100 µM against KLK14 stood at 67%.

For the molecule `COc1cccc(OC(=O)c2cc3cc(CCl)ccc3oc2=O)c1` [LP55], the IC50 at KLK7 (setting [2]) was found to be 8.4 ± 0.2 µM. The “selective activity against enzyme: KLK7” value at KLK7 is on record as “KLK7”. For the same molecule, in series [1], the “cytotoxicity, neutral red uptake test” value was “No noticeable cytotoxicity”.

As for `O=C(Oc1ccccc1)c1cc2cc(CO)ccc2oc1=O` [MH30], the results for the inhibition at 50 µM on KLK5 and against KLK14 were 25% and 32%, respectively. Besides, the IC50 on KLK7 (setting [2]) stood at 33.2 ± 1.4 µM.

Turning to `O=C(Oc1ccccc1Cl)c1cc2cc(CCl)ccc2oc1=O` [MFS36], the results for the inhibition at 100 µM against KLK5 and on KLK14 were 50% and 100%, respectively. For the same molecule, the IC50 at KLK7 (setting [2]) is 0.209 ± 0.006 µM. Further, the “selective activity against enzyme: KLK7” value at KLK7 is “KLK7”.

As to `CCOC(=O)c1cc2cc(COC(C)=O)ccc2oc1=O` [LP43], the inhibition at 100 µM was determined as 49% on KLK5, 30% against KLK7 (setting [5]) and 49% against KLK14.

Turning to `O=C(O)c1ccccc1OC(=O)c1cc2cc(CCl)ccc2oc1=O` [IK11], at KLK5, the inhibition at 50 µM amounted to 37.4%. The inhibition at 100 µM on KLK7 (setting [5]) turned out to be 63%. In addition, the half-maximal inhibitory concentration (IC50) at KLK14 (setting [3]) came out at 43 ± 4 µM.

As to `O=C(Oc1ccccc1)c1cc2cc(O)c(O)cc2oc1=O` [MH22], the inhibition at 50 µM at KLK5 worked out at 32%; on KLK7 (50 μM, 37° C., 15 min of incubation, pH 8) it was 100%; on KLK14 it was 85%.
